From the METLIN SMRT retention time set (Domingo-Almenara et al. 2019) come the findings set out here.

A short description of the data set: gradient 5% acetonitrile 3 min, to 50% in 2 min, to 85% in 15 min, held 3 min, 100 µL/min. The following applies: column: Zorbax Extend-C18 2.1 x 50 mm; eluents: water / acetonitrile, 0.1% formic acid. In a few lines:
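The system's dead and dwell volumes were 40 μL and 900 μL, with a Zorbax Extend-C18 column (2.1 × 50 mm, 1.8 μm) run at 100 μL/min in water and acetonitrile containing 0.1% formic acid each. Pure standards were analyzed in mixtures of ~100 molecules by HPLC–quadrupole time-of-flight mass spectrometry in positive and negative ionization mode. Retention time was assigned from computationally picked, manually inspected adduct peaks.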
`CCC(C)NC(=O)Cn1nc2cc(C)nc(-c3ccc(C(F)(F)F)cc3)n2c1=O` (centres undefined): the RP-LC retention time amounted to 661 s.
In turn, `CC1CCN(C(=O)CSc2nnc(-c3ccc(F)cc3)o2)CC1` registered an RP-LC retention time of 958 s.
With `Cc1cc(-c2ccc(S(=O)(=O)N3CCN(c4ccccn4)CC3)c(C)c2)on1`, the RP-LC retention time stood at 697 s.
For the compound `N#Cc1cccc(-c2cn3c(n2)N(C(=O)c2ccccc2)CCC3)c1`, the RP-LC retention time is 708 s.
The value for `COc1cc(C(=O)Nc2c(-c3ccc(F)cc3)nc3ccccn23)cc(OC)c1OC` was 657 s.
The figure for `CN(C)C(=O)C1CCN(S(=O)(=O)Cc2ccc(Cl)cc2)CC1` is 746 s; for `O=[N+]([O-])c1ccc(-c2nc(NCCCO)c3ccccc3n2)cc1` it is 595 s; for `CCCCOc1ccc(CNC(=O)c2cc3c(=O)n(C)ccc3n2C)cc1` it is 848 s.
Consider `CCN1C(=O)c2cccnc2Sc2cc(NC(=O)Cc3ccccc3F)ccc21`, for which the RP-LC retention time was determined as 826 s.
Compound `Cc1ccc(-c2nnc(N3CCC(C(=O)N4CCN(CC(C)C)CC4)CC3)o2)cc1` gave an RP-LC retention time of 639 s.
The figure for `Cc1noc(CNC(=O)c2n[nH]c3ccccc23)n1` is 626 s; for `O=C(c1ccc2c(c1)OCO2)N(c1ccc(Br)cc1)C1C=CS(=O)(=O)C1` (centres undefined) it is 779 s.
The value for `CCCn1cc(CCNS(=O)(=O)c2cc(C)c(C)cc2C)c2cccnc21` was 978 s.
Take `O=C(NCc1ccc(F)cc1Cl)c1cn2c(n1)CCCC2`: the RP-LC retention time turned out to be 607 s.
The value for `CC1=C(c2ccc(C)c(C)c2)S(=O)(=O)N=C1N1CCCN(C(=O)c2cccs2)CC1` was 874 s; that for `Cc1nc2cccnc2n1CC1CCCN(S(=O)(=O)Cc2ccccc2)C1` (centres undefined) was 654 s; that for `Cc1c(Cl)cccc1S(=O)(=O)N1CCC2(CC1)OCCS2` was 1050 s.
The value for `CCCN1C(=O)COc2ccc(-c3noc(Cc4ccc(OC)c(OC)c4)n3)cc21` was 993 s; that for `COc1ccc(C(CC(=O)NCCC(C)C)N2Cc3ccccc3C2=O)cc1OC` (centres undefined) was 722 s; that for `CN(C)c1cnc(-n2cc(NC(=O)NCCc3ccccc3)cn2)nc1` was 718 s.
The figure for `COc1cc(OC)cc(C(=O)N2CCc3cc(-c4csc(C)n4)ccc32)c1` is 977 s; for `O=C(Cc1cccs1)NCCN1CCN(c2ccc(Cl)cc2)CC1` it is 583 s.
`CC(C)C(=O)N1CCc2c([nH]c3ccccc23)C12C(=O)Nc1ccc(Br)cc12` (centres undefined): the RP-LC retention time came out at 925 s.
The figure for `CCCCOc1ccc(-c2cc3c4nnc(CCC(=O)NCc5ccc(F)cc5)n4ccn3n2)cc1` is 952 s; for `COc1ccc(NC(=O)C2CC(=O)N(c3ccc4c(c3)CCN4C(C)=O)C2)c(OC)c1` (centres undefined) it is 675 s.
Consider `O=C(c1ccccc1Br)N1CCc2nc(-c3ccc(Cl)cc3)ncc2C1`, for which the RP-LC retention time worked out at 1110 s.
The value for `CCOc1ccc2nc(NC(=O)Cc3csc4nc(-c5ccc(OC)c(OC)c5)cn34)sc2c1` was 784 s; that for `Cc1cccc(C(=O)N2C(C(=O)NCC3CCCO3)COC23CCN(C(=O)C(C)(C)C)CC3)c1` (centres undefined) was 684 s; that for `CC(C)CCN1CCC(N2CCN(S(=O)(=O)Cc3ccc(F)cc3Cl)CC2)C1=O` (centres undefined) was 682 s.
As to `COc1cccc(-c2cc(=O)n3c4ccccc4n(CC(=O)Nc4ccc(F)cc4)c3n2)c1`, the RP-LC retention time was determined as 980 s.
Compound `CCC1CN2C=Nc3oc(C)c(C(=O)Nc4ccc5c(c4)OCO5)c3C2=N1` (centres undefined) displayed an RP-LC retention time of 632 s.
Regarding `CNC(=O)c1cc(C(=O)c2ccc3nc(Nc4ccc(Cl)cc4)[nH]c3c2)ccn1`, the RP-LC retention time amounted to 669 s.
The value for `Cc1[nH]c(C(=O)N2CCCC(C(=O)NCCCN3CCCCCC3)C2)c(C)c1C(=O)OC(C)C` (centres undefined) was 650 s; that for `O=C(NCc1ccccc1Cl)c1cn2c(n1)CCCC2` was 613 s; that for `CC(C)n1c(=O)sc2cc(S(=O)(=O)N3CCC(C(=O)Nc4cccc(C#N)c4)CC3)ccc21` was 697 s.
Take `Nc1nc(SCC(=O)c2ccc3c(c2)OCCO3)n[nH]1`: the RP-LC retention time is 574 s.
In the case of `CC1CCN(Cc2csc(N3CCN(C(=O)COc4ccccc4)CC3)n2)CC1`, the RP-LC retention time amounted to 653 s.
The figure for `CCn1c(=O)sc2cc(S(=O)(=O)N3CCC(C(=O)Nc4ccccn4)CC3)ccc21` is 751 s.
The value for `CCN1C(=O)c2cccnc2Sc2cc(NC(=O)COc3cccc(C)c3)ccc21` was 931 s; that for `COc1ccc(-n2c(=O)c(C(=O)NC(C)c3ccccc3)c(O)c3cccnc32)cc1` (centres undefined) was 1180 s.
The compound `Cc1noc(-c2nn(C)c3c2CN(C(=O)CC2CCCC2)CC3)n1` came in with an RP-LC retention time of 759 s.
The figure for `CCOc1ccccc1NC(=O)CSc1nccc(N2CCN(c3cc(C)ccc3C)CC2)n1` is 861 s.
The figure for `O=C(Nc1cnc(N2CCN(c3ccccc3Cl)CC2)c(C(=O)O)c1)c1cccs1` is 910 s.
The value for `O=C(NC1CCN(Cc2ccccc2)CC1)C1CCCN(C(=O)N2CCOc3ccccc32)C1` (centres undefined) was 641 s; that for `Cc1cccc(Cn2c(=O)n(CCNC(=O)C3CCC3)c3ncccc32)c1` was 784 s; that for `NC(=O)c1cc(Br)cc(C2CCCCC2)c1O` was 1220 s.
`CCOc1cccc(-c2noc(Cn3cnc4c(cnn4-c4cc(Cl)ccc4C)c3=O)n2)c1` came in with an RP-LC retention time of 1230 s.
The value for `COc1ccc(Cl)cc1NC(=O)N1CCN(CCn2c(C(C)C)nc3cccnc32)CC1` was 649 s; that for `Cc1ccc(-c2nnc(-c3cccc(S(=O)(=O)NCc4cccs4)c3)o2)cc1` was 1030 s.
In turn, `Cc1ccccc1CC(=O)N1C[C@H](c2nc(-c3ccccc3)no2)[C@@H](C)C1` came in with an RP-LC retention time of 1070 s.
Compound `C=CCc1cc(C)ccc1OCC(O)Cn1cnc2ccccc21` (centres undefined) displayed an RP-LC retention time of 630 s.
`COc1ccc(Cl)cc1NC(=O)Cc1csc2nc(-c3ccccc3)cn12`: the RP-LC retention time turned out to be 902 s.
The figure for `CCN(CC)C(=O)Oc1ccc(C(=O)Nc2cccc3ccccc23)cc1` is 896 s.
The value for `O=C(CCC1CCCC1)N1CCc2c([nH]c3ccccc23)C1c1ccc(F)cc1` (centres undefined) was 1410 s; that for `COc1cccc(C2CC(c3ccc(F)cc3)=NC3(CCN(C)CC3)N2)c1O` (centres undefined) was 590 s; that for `Cc1ccc(C(=O)N2CCC(COc3ccc(C(=O)NC(C)C)cc3)CC2)s1` was 888 s.
The figure for `CCCC(=O)N1CCC(C(=O)NCCc2cscn2)CC1` is 596 s; for `Ic1cccc(/C=N/Nc2nc(N3CCOCC3)nc(N(c3ccccc3)c3ccccc3)n2)c1` it is 1140 s.
`CC(C)c1noc(-c2cc(=O)n(CC(=O)Nc3ccccc3)c3ccccc23)n1` came in with an RP-LC retention time of 972 s.
Turning to `Cc1nc(-c2csc(S(=O)(=O)N3CCC(C(=O)N4CCCC4)CC3)c2)no1`, the RP-LC retention time amounted to 760 s.
As for `O=C(c1ccccc1OCC1CCCN(C2CCC2)C1)N1CCCCC1` (centres undefined), the RP-LC retention time came out at 632 s.
The figure for `COc1cc(C)c(C)cc1S(=O)(=O)NCC1(CO)CC1` is 704 s; for `CC(C)CN1CCCCc2cc(C(=O)NC(C)(C)C)sc21` it is 1270 s; for `COc1ccc(C)cc1NC(=O)C1CCN(S(C)(=O)=O)c2cc(Cl)ccc2O1` (centres undefined) it is 1100 s.
The value for `O=S(=O)(Cc1ccccc1)N1CCCC(Cc2nncn2CC2CC2)C1` (centres undefined) was 631 s; that for `O=C(NCC1CCCCC1)C1CCCN(c2ccc(-c3ccccc3)nn2)C1` (centres undefined) was 762 s; that for `COc1ccc(NC(=O)N2CCN(c3cc(C)nc(N4CCCC4)n3)CC2)c(OC)c1` was 646 s.
The compound `O=S(=O)(c1ccccc1F)N1CCN(Cc2cccc(F)c2)C2(CCOCC2)C1` gave an RP-LC retention time of 807 s.
The value for `CC1CCC(NC(=O)c2sc3ncccc3c2-n2cccc2)CC1` (centres undefined) was 1200 s; that for `COc1ccc(C2Cn3cnc(C(=O)N4CCC(C(=O)NCC5CCCO5)CC4)c3CO2)cc1` (centres undefined) was 655 s; that for `O=C(COc1ccccc1)OCc1nc2ccccc2s1` was 929 s.
The value for `Cc1cc2c(=O)n(CC(=O)Nc3cccc(C(C)C)c3)ccc2s1` was 904 s; that for `CCN1c2ccc(F)cc2C(=O)NC12CCN(C(=O)Cc1ccccc1C)CC2` was 846 s.
The figure for `Cc1cc(C)c(CN2CCn3c(nn(C)c3=O)C2)c(C)c1` is 868 s; for `COc1ccc(-c2cc(C(=O)N3CCC(NC(=O)C4CC4)CC3)[nH]n2)cc1` it is 652 s; for `CC1CCC(NC(=O)c2nnc(-c3ccc(S(=O)(=O)N4CCOCC4)cc3)o2)CC1` (centres undefined) it is 917 s.
`Cc1cc(Cl)ccc1S(=O)(=O)N1CCc2nn(C)c(=O)n2CC1`: the RP-LC retention time turned out to be 756 s.
The value for `Cc1ncsc1C1N(C2CCN(C(=O)Nc3ccccc3)CC2)C(=O)C12CCCC2` (centres undefined) was 749 s; that for `COC(=O)C1=CN(c2ccc(OC)cc2)c2ccc(F)cc2S1(=O)=O` was 804 s.
